Measurements published in patent US12692262B2, “Substituted ureas as orexin receptor agonists” (Merck Sharp & Dohme LLC, priority 2020, dated 2026).

Target: T1, human OX2R (Homo sapiens, UniProt O43614)
T1 construct: expressed in transfected cells; host or cells: CHO (Chinese hamster ovary) cells grown under G418 selection
T1 sequence (O43614 1-444): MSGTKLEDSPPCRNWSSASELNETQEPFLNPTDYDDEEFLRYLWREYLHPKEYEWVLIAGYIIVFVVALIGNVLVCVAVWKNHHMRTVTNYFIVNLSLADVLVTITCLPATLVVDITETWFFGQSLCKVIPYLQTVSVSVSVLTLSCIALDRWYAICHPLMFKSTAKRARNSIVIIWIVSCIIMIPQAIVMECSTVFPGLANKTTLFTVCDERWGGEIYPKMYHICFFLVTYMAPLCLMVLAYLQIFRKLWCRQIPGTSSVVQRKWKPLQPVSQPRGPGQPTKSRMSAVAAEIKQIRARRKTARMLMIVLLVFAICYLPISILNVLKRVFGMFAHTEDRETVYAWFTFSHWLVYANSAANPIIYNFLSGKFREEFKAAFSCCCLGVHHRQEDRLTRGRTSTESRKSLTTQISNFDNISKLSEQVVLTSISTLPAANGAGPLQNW
Assay: IPOne (IP-1 accumulation) assay in CHO cells expressing human OX2R
Format: cell-based
Conditions: for EC50: CHO cells expressing human OX2R, IP-One assay, 2 h incubation, four parameter logistic fit, read-out: OX2R Potency, EC50; for % of maximum agonist effect (relative to Orexin A): percent effect vs mean max effect of a reference compound at 1 uM (100% activity vs Orexin A), human OX2R
Procedure, shortened: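 Agonist EC50 values come from the inflection point of four-parameter logistic curves. Read-out is IP-1 accumulation detected with lysis buffer plus D2 and AB-cryptate reagents (HTRF), in CHO cells engineered to express human OX2R.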

SMILES | EC50 | % of maximum agonist effect (relative to Orexin A)
CCN(C(=O)N[C@@H](CCC(F)(F)F)C(F)(F)F)[C@@H](c1cc(-c2cc(OC)c3ncn(C)c3c2)c(OC)cn1)C(F)(F)F [Example 9-7, 1-ethyl-3-((S)-1,1,1,5,5,5-hexafluoropentan-2-yl)-1-((S)-2,2,2-trifluoro-1-(5-methoxy-4-(4-methoxy-1-methyl-1H-benzo[d]imidazol-6-yl)pyridin-2-yl)ethyl)urea] | 29.8 nM | 100.4%
CCN(C(=O)NC(CC1CCCO1)C(F)(F)F)[C@@H](c1cc(-c2cn3cc(C)nc3c(OC)n2)c(OC)cn1)C(F)(F)F (stereo partly drawn) [Example 2-46, 1-ethyl-1-((S)-2,2,2-trifluoro-1-(5-methoxy-4-(8-methoxy-2-methylimidazo[1,2-a]pyrazin-6-yl)pyridin-2-yl)ethyl)-3-(1,1,1-trifluoro-3-(tetrahydrofuran-2-yl)propan-2-yl)urea] | 11.7 nM | 100.9%
CCN(C(=O)N[C@@H](CCC(F)(F)F)C(F)(F)F)[C@@H](c1cccc(-c2cn3ccnc3c(OC)n2)c1)C(F)(F)F [Example 2-22, N-ethyl-N′-[(2S)-1,1,1,5,5,5-hexafluoropentan-2-yl]-N-{2,2,2-trifluoro-1-[3-(8-methoxyimidazo[1,2-a]pyrazin-6-yl)phenyl]ethyl}urea] | 2.8 nM | 101.5%
CCN(C(=O)N[C@@H](CCC(F)(F)F)C(F)(F)F)C(c1cc(-c2cn3cc(C)nc3c(OC)n2)c(OC)cn1)C(F)F (stereo partly drawn) [Example 2-17, 1-(2,2-difluoro-1-(5-methoxy-4-(8-methoxy-2-methylimidazo[1,2-a]pyrazin-6-yl)pyridin-2-yl)ethyl)-1-ethyl-3-((S)-1,1,1,5,5,5-hexafluoropentan-2-yl)urea] | 3.2 nM | 101.7%
CCN(C(=O)NC(C)(C)C#N)[C@H](C)c1cccc(-c2cn3ccnc3c(OC)n2)c1 [Example 2-25, (R)-3-(2-cyanopropan-2-yl)-1-ethyl-1-(1-(3-(8-methoxyimidazo[1,2-a]pyrazin-6-yl)phenyl)ethyl)urea] | 360 nM | 98.0%
CCN(C(=O)NC1CC1)[C@@H](c1cc(-c2cn3ccnc3c(OC)n2)c(OC)cn1)C(F)(F)F [Example 2-32, (S)-3-cyclopropyl-1-ethyl-1-(2,2,2-trifluoro-1-(5-methoxy-4-(8-methoxyimidazo[1,2-a]pyrazin-6-yl)pyridin-2-yl)ethyl)urea] | 40.8 nM | 101.0%
CCN(C(=O)N[C@@H](CCC(F)(F)F)C(F)(F)F)C(c1cnc(SC)c(-c2cc(OC)n3nccc3c2)c1)C(F)(F)F (stereo partly drawn) [Example 2-15, 1-ethyl-3-((S)-1,1,1,5,5,5-hexafluoropentan-2-yl)-1-(2,2,2-trifluoro-1-(5-(7-methoxypyrazolo[1,5-a]pyridin-5-yl)-6-(methylthio)pyridin-3-yl)ethyl)urea] | 24 nM | 98.4%
CC[C@H](CCC(F)(F)F)NC(=O)N(CC)[C@H](C)c1ccc(OC)c(-c2cc(C)c3nccn3c2)c1 [Example 8-3, 1-ethyl-1-((R)-1-(4-methoxy-3-(8-methylimidazo[1,2-a]pyridin-6-yl)phenyl)ethyl)-3-((R)-6,6,6-trifluorohexan-3-yl)urea] | 10.4 nM | 96.6%
CCN(C(=O)N[C@@H](CCC(F)(F)F)C(F)(F)F)[C@@H](c1cc(-c2cc(F)c3ncnn3c2)c(OC)cn1)C(F)(F)F [Example 9-10, 1-ethyl-3-((S)-1,1,1,5,5,5-hexafluoropentan-2-yl)-1-((S)-2,2,2-trifluoro-1-(4-(8-fluoro-[1,2,4]triazolo[1,5-a]pyridin-6-yl)-5-methoxypyridin-2-yl)ethyl)urea] | 608 nM | 97.1%
CCN(C(=O)N[C@@H](CCC(F)(F)F)C(F)(F)F)C(C)c1cc(-c2cn3ccnc3c(OC)n2)ncn1 (stereo partly drawn) [Example 13-2, 1-ethyl-3-((S)-1,1,1,5,5,5-hexafluoropentan-2-yl)-1-(1-(6-(8-methoxyimidazo[1,2-a]pyrazin-6-yl)pyrimidin-4-yl)ethyl)urea] | 16.8 nM | 101.4%
CCN(C(=O)N[C@@H](CCC(F)(F)F)C(F)(F)F)[C@@H](c1cc(-c2cn3ccnc3c(OC)n2)c(OC)cn1)C(F)(F)F [Example 10-1, 1-ethyl-3-((S)-1,1,1,5,5,5-hexafluoropentan-2-yl)-1-((S)-2,2,2-trifluoro-1-(5-methoxy-4-(8-methoxyimidazo[1,2-a]pyrazin-6-yl)pyridin-2-yl)ethyl)urea] | 1.1 nM | 100.4%
CCC(NC(=O)N(CC)[C@@H](c1cc(-c2cn3cc(C)nc3c(OC)n2)c(OC)cn1)C(F)(F)F)C1CC1C(F)(F)F (stereo partly drawn) [Example 6-6, 1-ethyl-1-((S)-2,2,2-trifluoro-1-(5-methoxy-4-(8-methoxy-2-methylimidazo[1,2-a]pyrazin-6-yl)pyridin-2-yl)ethyl)-3-(1-(2-(trifluoromethyl)cyclopropyl)propyl)urea] | 71.4 nM | 101.5%
CCN(C(=O)N[C@@H](CCC(F)(F)F)C(F)(F)F)C(c1cc(-c2cn3ccnc3c(OC)n2)cc(OC)n1)C(F)(F)F (stereo partly drawn) [Example 10-16, 1-ethyl-3-((S)-1,1,1,5,5,5-hexafluoropentan-2-yl)-1-(2,2,2-trifluoro-1-(6-methoxy-4-(8-methoxyimidazo[1,2-a]pyrazin-6-yl)pyridin-2-yl)ethyl)urea] | 35.2 nM | 97.9%
CCN(C(=O)N[C@H]1C[C@@]1(C)C(F)(F)F)[C@@H](c1cc(-c2cn3ccnc3c(OC)n2)c(OC)cn1)C(F)(F)F [Example 2-39, 1-ethyl-3-((1S,2R)-2-methyl-2-(trifluoromethyl)cyclopropyl)-1-((S)-2,2,2-trifluoro-1-(5-methoxy-4-(8-methoxyimidazo[1,2-a]pyrazin-6-yl)pyridin-2-yl)ethyl)urea] | 5.8 nM | 99.3%
CCN(C(=O)N[C@@H](CCC(F)(F)F)C(F)(F)F)[C@@H](c1ccc(OC)c(-c2ccc3nccn3c2)c1)C(F)(F)F [Example 2-23, 1-ethyl-3-((S)-1,1,1,5,5,5-hexafluoropentan-2-yl)-1-((S)-2,2,2-trifluoro-1-(3-(imidazo[1,2-a]pyridin-6-yl)-4-methoxyphenyl)ethyl)urea] | 2.7 nM | 100.8%
CC[C@H](CCC(F)(F)F)NC(=O)N(CC)C(C)(C)c1cccc(-c2ccc3nccn3c2)c1 [Example 18, (R)-1-ethyl-1-(2-(3-(imidazo[1,2-a]pyridin-6-yl)phenyl)propan-2-yl)-3-(6,6,6-trifluorohexan-3-yl)urea] | 126 nM | 99.6%
CCN(C(=O)NC(C)C1CCCC(F)(F)C1)[C@H](C)c1cccc(-c2cn3ccnc3c(OC)n2)c1 (stereo partly drawn) [Example 1-9, 3-(1-(3,3-difluorocyclohexyl)ethyl)-1-ethyl-1-((R)-1-(3-(8-methoxyimidazo[1,2-a]pyrazin-6-yl)phenyl)ethyl)urea] | 0.6 nM | 99.8%
CCN(C(=O)N[C@@H](CCC(F)(F)F)C(F)(F)F)[C@@H](c1cc(-c2cn3ccnc3c(OC)n2)c(C)cn1)C(F)(F)F [Example 10-21, 1-ethyl-3-((S)-1,1,1,5,5,5-hexafluoropentan-2-yl)-1-((S)-2,2,2-trifluoro-1-(4-(8-methoxyimidazo[1,2-a]pyrazin-6-yl)-5-methylpyridin-2-yl)ethyl)urea] | 1.6 nM | 100.9%
CCN(C(=O)NC(C)C)[C@@H](c1cc(-c2cn3ccnc3c(OC)n2)c(OC)cn1)C(F)(F)F [Example 2-29, (S)-1-ethyl-3-isopropyl-1-(2,2,2-trifluoro-1-(5-methoxy-4-(8-methoxyimidazo[1,2-a]pyrazin-6-yl)pyridin-2-yl)ethyl)urea] | 23.8 nM | 96.0%
CCN(C(=O)N[C@@H](CCCF)C(F)F)[C@@H](c1cc(-c2cn3ncnc3c(OC)n2)c(OC)cn1)C(F)(F)F [Example 4-3, 1-ethyl-1-((S)-2,2,2-trifluoro-1-(5-methoxy-4-(8-methoxy-[1,2,4]triazolo[1,5-a]pyrazin-6-yl)pyridin-2-yl)ethyl)-3-((S)-1,1,5-trifluoropentan-2-yl)urea] | 17.2 nM | 101.4%
CCN(C(=O)NC(C#N)c1cccc(C(F)(F)F)c1)[C@H](C)c1cccc(-c2cn3ccnc3c(OC)n2)c1 (stereo partly drawn) [Example 1-12, 3-(cyano(3-(trifluoromethyl)phenyl)methyl)-1-ethyl-1-((R)-1-(3-(8-methoxyimidazo[1,2-a]pyrazin-6-yl)phenyl)ethyl)urea] | 19.8 nM | 99.1%
CCN(C(=O)N[C@@H](CCC(F)(F)F)C(F)(F)F)[C@@H](c1cc(-c2cn3cc(C)nc3c(OC)n2)c(OC)cn1)C(F)(F)F [Example 10-9, 1-ethyl-3-((S)-1,1,1,5,5,5-hexafluoropentan-2-yl)-1-((S)-2,2,2-trifluoro-1-(5-methoxy-4-(8-methoxy-2-methylimidazo[1,2-a]pyrazin-6-yl)pyridin-2-yl)ethyl)urea] | 2.7 nM | 102.5%
